Measured values reported in paper PMC10673258, “Taxifolin as a Metallo-β-Lactamase Inhibitor in Combination with Augmentin against Verona Imipenemase 2 Expressing Pseudomonas aeruginosa” (Microorganisms, 2023).
Values joined by “and” are separate entries in the source; they are usually repeats but may differ in a detail not shown here. Equal entries are not always repeated. Where two headings read alike, the source gives them in different places.

Experiments:
[1] = biological target: T1, VIM-2 (Pseudomonas aeruginosa, UniProt Q9K2N0); test: VIM-2 enzyme kinetics with nitrocefin, competitive inhibition model; assay type: biochemical
T1 construct: The activity of purified VIM-2 was measured spectrophotometrically; made in house
Experimental: Nitrocefin was used as the substrate, as it is a chromogenic cephalosporin. The activity of purified VIM-2 was measured spectrophotometrically (Cytation 3, BioTek, Winooski, VT, USA) in a potassium phosphate buffer (PBS, pH = 7.4, prepared according to a published recipe).

[2] = set-up: method as in PMID 27864057; conditions: read-out: Kd (Zn binding); cited from earlier work
[3] = tested on: PAX5VIM-2 (VIM-2 expressing bioluminescent PA); test: MIC assay against PAX5VIM-2 (CLSI, MHB-2); assay type: cell-based, Pseudomonas aeruginosa
Experimental: MIC assays were carried out following the Clinical and Laboratory Standards Institute (CLSI) established guidelines using MHB-2 and bacterial concentrations of 5 × 10^5 CFU/mL [57, 58]. A varying concentration of quercetin derivatives or conventional antibiotics was dissolved in the media with bacteria cells. The resulting suspensions were transferred to a 96-well microliter plate at 200 μL/well (triplicate for each compound). The plate was then incubated overnight at 37 °C. The MIC was determined as the concentration at which no growth was observed.

[4] = Toxicity against wild type human HEK 293T cells; assay type: cell-based; conditions: HEK293T cells (wild type); quercetin analogs alone; human kidney cell line HEK293T
[5] = tested on: PAX5-WT; test: Single dose inhibition against SBL-producing PAX5-WT; assay type: cell-based, Pseudomonas aeruginosa; conditions: amoxicillin 25 μM; amoxicillin:taxifolin 1:1; QATC 2:1:2
Experimental: Bacteria were diluted to 5 × 10^5 CFU/mL in MH broth (MHB). A growth control containing only bacteria and a negative control containing only MHB were added. Test wells were treated with either 25 µM meropenem, ceftazidime, amoxicillin, or doripenem, as well as 1:1 combinations of the previous antibiotics with vaborbactam. Each set was repeated in triplicate, and the final viability was determined in reference to the growth control.
Supplementary Figure S9. Single dose inhibition of taxifolin against SBL-producing PAX5-WT. Concentration of amoxicillin was 25 μM for all samples. The molar ratio of the augmentin was 2:1 (amoxicillin:clavulanate); the molar ratio of the amoxicillin:taxifolin was 1:1; the molar ratio of the QATC was 2:1:2 (amoxicillin:clavulanate:taxifolin).
Supplementary Figure S10. […]

[6] = tested on: HEK 293T cells; test: Toxicity against wild type human HEK 293T cells; assay type: cell-based; conditions: quercetin analogs alone; human kidney cell line HEK293T
[7] = inhibitor fixed at 500 μM, nitrocefin 5 to 100 μM, PBS pH 7.4, 10 min pre-incubation, read-out: VIM-2, Ki
[8] = quercetin analogs in combination with augmentin (2:1 molar amoxicillin:clavulanate), PAX5VIM-2

Molecule | Ki [1, 7] | MIC [3, 8] | CC50 [4] | also measured
O=c1c(O)c(-c2ccc(O)c(O)c2)oc2cc(O)cc(O)c12 [1a, quercetin] | 41 ± 4 µM |  |  | Kd [2]: ~100 µM
O=c1cc(-c2ccc(O)c(O)c2)oc2c(C3OC(CO)C(O)C(O)C3O)c(O)cc(O)c12 (stereo not drawn) [1d] | 34 ± 4 µM |  |  | 
O=c1cc(-c2ccc(O)c(O)c2)oc2cc(O)cc(O)c12 [11a] | 36 ± 2 µM | 7.2 µg/mL | 175 µM | 
O=C(O)[C@H]1O[C@@H](Oc2cc(O)c3c(=O)cc(-c4ccc(O)c(O)c4)oc3c2)[C@H](O)[C@@H](O)[C@@H]1O [11b] | 52 ± 9 µM | 11.6 µg/mL | 182 µM | 
CC1(C)S[C@@H]2[C@H](NC(=O)[C@H](N)c3ccc(O)cc3)C(=O)N2[C@H]1C(=O)O [amoxicillin, reference compound] |  |  |  | MIC ([3]; Pseudomonas aeruginosa, read-out: MIC of amoxicillin): 100 µM and 36 µg/mL
O=c1c(O)c(-c2cc(O)c(O)c(O)c2)oc2cc(O)cc(O)c12 [compound 3] | 42 ± 1 µM | 9.4 µg/mL |  | 
O=c1c(O)c(-c2ccc(O)c(O)c2)oc2cc(O)c(O)c(O)c12 [compound 4, quercetagetin] |  | 3.9 µg/mL |  | Ki [1]: 13 ± 2 µM
O=C1c2c(O)cc(O)cc2OC(c2ccc(O)c(O)c2)C1O (stereo not drawn) [compound 5, taxifolin] | 8 ± 1 µM | 3.1 µg/mL | > 200 µM | concentration inhibiting VIM-2 expressing P. aeruginosa cell proliferation ([3]; as part of a triple combination with amoxicillin and clavulanate): < 4 µg/mL; benefit in the killing of SBL-only PAX5-WT [5]: unable to provide any significant benefit in the killing
COc1ccc(-c2cc(=O)c3c(O)cc(O)cc3o2)cc1O [compound 12] |  | 7.5 µg/mL |  | 
COc1ccc(-c2oc3cc(OC)c(OC)c(O)c3c(=O)c2OC)cc1O [compound 13] |  | 9.4 µg/mL | > 200 µM | 
chrysoeriol [compound 14] |  | 7.6 µg/mL |  | CC50 [6]: > 200 µM
